From patent US6608082B1, “Treatment of erectile dysfunction using isoquinoline compound melanocortin receptor ligands” (Lion Bioscience AG, priority 1998, dated 2003)
Like-named read-outs stand apart in the source and are kept apart here. One block for each molecule: values may come before it.

Assays:
MCR-4 = molecular target: T1, MCR-4 (Homo sapiens, UniProt P32245); assay: Melanocortin receptor binding assay, competition with 125I-HP 467, HEK 293 cells expressing hMCR-4; conditions: for IC50: read-out: MC-4 IC50
T1 construct: expressed in transfected cells; host or cells: HEK 293
T1 sequence (P32245 whole entry): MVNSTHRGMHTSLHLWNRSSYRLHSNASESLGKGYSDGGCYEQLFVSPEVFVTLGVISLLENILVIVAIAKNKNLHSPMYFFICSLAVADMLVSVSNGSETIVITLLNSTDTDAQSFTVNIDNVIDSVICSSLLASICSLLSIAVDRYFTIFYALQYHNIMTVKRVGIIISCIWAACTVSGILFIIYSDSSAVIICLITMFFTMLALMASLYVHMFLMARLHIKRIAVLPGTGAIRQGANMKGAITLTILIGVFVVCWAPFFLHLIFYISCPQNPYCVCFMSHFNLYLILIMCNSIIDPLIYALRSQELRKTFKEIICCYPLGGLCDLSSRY
In short: (§1)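 Test compounds compete on intact HEK 293 cells carrying hMCR-1 (2×10^4 per tube) or hMCR-4 (4×10^3 per tube), suspended in PBS, 10% calf serum, 1 mM CaCl2.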

MCR-1 = molecular target: T2, MCR-1 (Homo sapiens, UniProt Q01726); assay: Melanocortin receptor binding assay, competition with 125I-HP 467, HEK 293 cells expressing hMCR-1; conditions: for IC50: read-out: MC-1 IC50
T2 construct: expressed in transfected cells; host or cells: HEK 293
T2 sequence (Q01726 whole entry): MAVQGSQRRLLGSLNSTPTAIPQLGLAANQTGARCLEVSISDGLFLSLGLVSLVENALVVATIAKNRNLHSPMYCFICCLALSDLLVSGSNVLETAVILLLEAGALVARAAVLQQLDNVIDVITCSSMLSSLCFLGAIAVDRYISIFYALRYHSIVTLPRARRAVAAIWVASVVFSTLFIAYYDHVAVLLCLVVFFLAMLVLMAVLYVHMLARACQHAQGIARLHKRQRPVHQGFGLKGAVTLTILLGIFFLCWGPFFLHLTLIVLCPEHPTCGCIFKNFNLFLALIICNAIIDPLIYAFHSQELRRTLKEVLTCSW
In short: as §1

[1] = TRG 2414 library, inhibition of binding of 125I-HP 467, HEK 293 cells expressing MCR-4
[2] = TRG 2414 library, inhibition of binding of 125I-HP 467, HEK 293 cells expressing MCR-1
[3] = inhibition of binding of 125I-HP 467, HEK 293 cells expressing MCR-4
[4] = inhibition of binding of 125I-HP 467, HEK 293 cells expressing MCR-1
[5] = inhibition of binding of 125I-HP 467, HEK 293 cells expressing MCR-4, TRG 2414 library
[6] = inhibition of binding of 125I-HP 467, HEK 293 cells expressing MCR-1, TRG 2414 library
[7] = TRG 2406 and TRG 2407 libraries, inhibition of binding of 125I-HP 467
[8] = competition with 125I-HP 467, HEK 293 cells expressing MCR-4
[9] = competition with 125I-HP 467, HEK 293 cells expressing MCR-1

IC50 (MCR-4; [3]): 1330 nM | IC50 (MCR-1; [4]): 350 nM
Compound: CCCCNc1ccc(C2C(CNC3CCCCC3)c3ccccc3CN2CCCC(CN)NCCc2ccc(OC)cc2)cc1 (stereo not drawn) [TRG 2411-209]

IC50 (MCR-4; [5]): 1180 nM | IC50 (MCR-1; [6]): 2180 nM
Compound: NCC(N)CCCCN1Cc2ccccc2C(CNCCc2cccc(Cl)c2)C1c1ccc(Cl)cc1Cl (stereo not drawn) [TRG 2414-13]

IC50 (MCR-4; [8]): 1230 nM | IC50 (MCR-1; [9]): 560 nM
Compound: CNC(C)CNC(CN)CCCCN1Cc2ccccc2C(CN)C1c1ccc(-c2ccccc2)cc1 (mixture of isomers) [TRG 2411-28]

IC50 (MCR-4; [1]): 4760 nM | IC50 (MCR-1; [2]): 7380 nM
Compound: NCC(CCCCN1Cc2ccccc2C(CNCCc2cccc(Cl)c2)C1c1ccccc1Br)NCCc1ccccc1 (stereo not drawn) [Cmpd 214]

IC50 (MCR-4; [8]): 850 nM | IC50 (MCR-1; [9]): 80 nM
Compound: CCCCNc1ccc(C2C(CN)c3ccccc3CN2CCCC(CN)NCCc2ccccc2)cc1 (stereo not drawn) [TRG 2409-221]

IC50 (MCR-4; [7]): 540 nM | IC50 (MCR-1; [7]): 910 nM
Compound: CNC(CN)CCCCN1Cc2ccccc2C(CNC(C)C)C1c1ccc(Cl)cc1Cl (stereo not drawn) [TRG 2407-37]

IC50 (MCR-4; [3]): 1060 nM | IC50 (MCR-1; [4]): 620 nM
Compound: CCCCCc1ccc(C2C(CNCCc3ccccc3)c3ccccc3CN2CCCC(CN)NCc2ccccc2)cc1 (stereo not drawn) [TRG 2412-30]

IC50 (MCR-4; [3]): 4540 nM | IC50 (MCR-1; [4]): 273 nM
Compound: CCCCCc1ccc(C2C(CN)c3ccccc3CN2CCCC[C@@H](CN)NCC)cc1 (stereo partly drawn) [TRG 2415-20]

IC50 (MCR-4; [8]): 2240 nM | IC50 (MCR-1; [9]): 110 nM
Compound: CCCCNc1ccc(C2C(CNCCc3ccccc3)c3ccccc3CN2CCCCC(CN)NCC)cc1 (stereo not drawn) [TRG 2411-74]

MC-4 IC50 (MCR-4; [1]): no fit | MC-1 IC50 (MCR-1; [2]): no fit
Compound: COc1ccc(CCNCC2c3ccccc3CN(CCCCC(N)CN)C2c2cc(C(F)(F)F)cc(C(F)(F)F)c2)cc1 (stereo not drawn) [Cmpd 262]

IC50 (MCR-4; [8]): 490 nM | IC50 (MCR-1; [9]): 1170 nM
Compound: NCC(CCCN1Cc2ccccc2C(CN)C1c1ccc(-c2ccccc2)cc1)NCc1ccccc1 (stereo not drawn) [TRG 2411-149]

IC50 (MCR-4; [3]): 3990 nM | IC50 (MCR-1; [4]): 1330 nM
Compound: CCNC(CN)CCCCN1Cc2ccccc2C(CN)C1c1ccc(OCC)cc1 (stereo not drawn) [TRG 2415-16]

IC50 (MCR-4; [8]): 590 nM | IC50 (MCR-1; [9]): 160 nM
Compound: CCCCNc1ccc(C2C(CN)c3ccccc3CN2CCCCC(CN)NCCc2ccccc2)cc1 (stereo not drawn) [TRG 2411-104]

Second part, the molecule before the results:

Compound: NCC(N)CCCCN1Cc2ccccc2C(CNCCc2cccc(Cl)c2)C1c1ccc(Cl)cc1Cl (stereo not drawn) [Cmpd 244]
MC-4 IC50 (MCR-4; [1]): no fit | IC50 (MCR-1; [2]): 44100 nM

Compound: CCCOc1ccc(C2C(CNCc3ccccc3O)c3ccccc3CN2CCN)cc1 (stereo not drawn) [TRG 2406-14]
IC50 (MCR-4; [7]): 5360 nM | IC50 (MCR-1; [7]): 8310 nM

Compound: NCC(CCCCN1Cc2ccccc2C(CNCc2ccccc2)C1c1cc(C(F)(F)F)cc(C(F)(F)F)c1)NCc1ccccc1 (stereo not drawn) [TRG 2414-71]
IC50 (MCR-4; [5]): 9060 nM | IC50 (MCR-1; [6]): 17000 nM

Compound: COc1cccc(CNCC2c3ccccc3CN(CCCCC(CN)NCCc3ccccc3)C2c2cccc(Oc3ccccc3)c2)c1 (mixture of isomers) [TRG 2414-98]
IC50 (MCR-4; [5]): 9610 nM | IC50 (MCR-1; [6]): 13200 nM

Compound: CCNc1ccc(C2C(CNCCc3ccccc3)c3ccccc3CN2CCCC(CN)NCC2CC2CNCCc2ccccc2)cc1 (stereo not drawn) [TRG 2420-8]
IC50 (MCR-4; [3]): 2360 nM | IC50 (MCR-1; [4]): 208 nM

Compound: COc1ccc(CCNCC2c3ccccc3CN(CCCCC(CN)NCc3ccc(C)cc3)C2c2cc(C(F)(F)F)cc(C(F)(F)F)c2)cc1OC (mixture of isomers) [TRG 2421-17]
IC50 (MCR-4; [3]): 830 nM | IC50 (MCR-1; [4]): 2060 nM

Compound: CCOc1ccccc1CNCC1c2ccccc2CN(CCCCC(N)CN)C1c1ccc(Oc2ccccc2)cc1 (stereo not drawn) [TRG 2414-125]
IC50 (MCR-4; [5]): 8080 nM | IC50 (MCR-1; [6]): 700 nM

Compound: COc1cccc(CCNCC2c3ccccc3CN(CCCCC(CN)NCc3ccccc3)C2c2cc(C(F)(F)F)cc(C(F)(F)F)c2)c1 (stereo not drawn) [TRG 2421-36]
IC50 (MCR-4; [3]): 890 nM | IC50 (MCR-1; [4]): 3990 nM

Compound: NCC(N)CCCCN1Cc2ccccc2C(CNC2CCCCCC2)C1c1ccccc1Br (stereo not drawn) [Cmpd 233]
IC50 (MCR-4; [1]): 3270 nM | IC50 (MCR-1; [2]): 3320 nM

Compound: NCC(CCCCN1Cc2ccccc2C(CNCc2ccccc2)C1c1ccc(Oc2ccccc2)cc1)NCc1ccccc1 (stereo not drawn) [TRG 2414-151]
IC50 (MCR-4; [5]): 14700 nM | IC50 (MCR-1; [6]): 1810 nM

Compound: CC(C)Cc1ccc(C(C)CNC(CN)CCCCN2Cc3ccccc3C(CNC3CCCCC3)C2c2cccc(Oc3ccccc3)c2)cc1 (stereo not drawn) [TRG 2414-120]
IC50 (MCR-4; [5]): 58800 nM | IC50 (MCR-1; [6]): 25000 nM
